Experimental data reported in patent publication US20250145665A1, “MACROCYCLIC PEPTIDES USEFUL AS MODULATORS OF TNF ALPHA” (Bristol-Myers Squibb Company, priority 2023, published 2025).
Like-named read-outs stand apart in the source and are kept apart here. Starred links: 1 amine or outer side, 2 acyl side, 3 side chain; linkers in the order of their positions; H or OH if unused. Positions of bridges follow the written chain, without caps; N, C: chain ends. Non-standard residues stand in square brackets, D forms with d. Residues, ends and D or L forms follow the SMILES beside them. *: point of attachment. Bip(4'-NHCO-C6H4-3-CH2COOH) = N[C@@H](Cc1ccc(-c2ccc(NC(=O)c3cccc(CC(=O)O)c3)cc2)cc1)C(=O)O; dArg(Nω-CH2C6H4-3-CH2Gua) = N=C(N)NCc1cccc(CNC(=N)NCCC[C@@H](N)C(=O)O)c1; dArg(ω-(2S)-2,3-diOHpropyl) = N=C(NCCC[C@@H](N)C(=O)O)NC[C@H](O)CO; Bip(4'-NH) = O=C([C@H](Cc1ccc(-c2ccc(N[*:3])cc2)cc1)N[*:1])[*:2]; dArg(ω-(3-HO-benzyl)) = N=C(NCCC[C@@H](N)C(=O)O)NCc1cccc(O)c1; Bip(4'-CONHMe) = CNC(=O)c1ccc(-c2ccc(C[C@H](N)C(=O)O)cc2)cc1; Indazole3carbonyl(1-CH2COOH) = O=C(O)Cn1nc(C(=O)*)c2ccccc21; Bip(4'-COOH) = N[C@@H](Cc1ccc(-c2ccc(C(=O)O)cc2)cc1)C(=O)O; Bip(4'-NHAc) = CC(=O)Nc1ccc(-c2ccc(C[C@H](N)C(=O)O)cc2)cc1; dArg(ω-Bn) = N=C(NCCC[C@@H](N)C(=O)O)NCc1ccccc1; Ala(morpholin-4-yl) = N[C@@H](CN1CCOCC1)C(=O)O; Benzoyl(3-OCH2COOH) = O=C(O)COc1cccc(C(=O)*)c1; Phe(3-CONH2) = NC(=O)c1cccc(C[C@H](N)C(=O)O)c1; Phe(4-CONH2) = NC(=O)c1ccc(C[C@H](N)C(=O)O)cc1; Bip = N[C@@H](Cc1ccc(-c2ccccc2)cc1)C(=O)O; Morpholine(3S-CO) = O=C(O)[C@@H]1COCCN1; Abu(3S-NH2) = C[C@H](N)[C@H](N)C(=O)O; Cha = N[C@@H](CC1CCCCC1)C(=O)O; X62 = COC(=O)Cc1cccc(C(=O)*)c1; Tle = CC(C)(C)[C@H](N)C(=O)O; Sar = CNCC(=O)O

Target: TNFα (Homo sapiens, UniProt P01375)
Assay: TNF-Induced HEK-Blue Assay
Assay type: cell-based
[1] = HEK-Blue-CD40L cells, NF-kB-driven secreted alkaline phosphatase reporter, TNFα 0.5 ng/ml, 18 h, read-out: TNF induced HEK-Blue assay IC50 value

Sequence of TNFα (P01375 77-233 limits assumed): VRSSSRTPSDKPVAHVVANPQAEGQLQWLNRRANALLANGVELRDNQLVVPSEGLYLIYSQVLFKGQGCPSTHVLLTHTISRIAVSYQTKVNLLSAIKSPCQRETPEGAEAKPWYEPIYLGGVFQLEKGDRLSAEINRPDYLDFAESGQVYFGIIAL
Experimental: TNFα (final concentration 0.5 ng/ml) or CD40L (final concentration 30 ng/ml) in assay buffer [DMEM, 4.5 g/l glucose (Gibco, Cat. 21063-029), 10% FBS (Sigma, F4135), 1% Penicillin-Streptomycin (Gibco, Cat. 15140-122), 1% Anti-Anti (Gibco, Cat. 15240-112) and 2 mM L-glutamine (Gibco, Cat. 25030-081)] was then added to the assay plate. After a 30 minute pre-incubation at 37° C. and 5% CO2, HEK-Blue™-CD40L cells (INVIVOGEN, Cat. Code hkb-cd40) containing a NF-kB-driven secreted alkaline phosphatase reporter gene were seeded into the assay plate at a density of 20,000 cells per well. This plate was then incubated for 18 h at 37° C. and 5% CO2. Secreted alkaline phosphatase expression was measured using QUANTI-Blue™ (INVIVOGEN, Cat. Code rep-qb1) according to manufacturer's specifications and the assay plate was read on a PerkinElmer Envision at 620 nm.
IC50 values were determined after correcting for background [(sample read-mean of low control)/(mean of high control-mean of low control)] where by the low control is DMSO without stimulation and high control is DMSO with stimulation.

IC50 [1]	Compound	IC50
< 50 nM	CC[C@H](C)[C@@H]1NC(=O)[C@@H](CCCNC(=N)N)NC(=O)[C@H](CC(=O)O)NC(=O)[C@H](Cc2cnc[nH]2)NC(=O)CN(C)C(=O)[C@H](Cc2ccc(-c3ccc(C(=O)NC)cc3)cc2)NC(=O)[C@H](Cc2ccc(-c3ccc(C(=O)O)cc3)cc2)NC(=O)[C@H](CC2CCCCC2)NC(=O)CSC[C@@H](C(=O)NCC(N)=O)NC(=O)[C@H](CC(C)C)NC(=O)[C@H](Cc2cnc[nH]2)NC(=O)[C@H](C(C)C)NC(=O)[C@@H]2CCCN2C1=O [Example 331] ({CH2CO}-[Cha][Bip(4'-COOH)][Bip(4'-CONHMe)][Sar]HD[dR]IPVHLCG-NH2; thioether N-13)	
50 to 200 nM	CC(=O)Nc1ccc(-c2ccc(C[C@@H]3NC(=O)[C@H](Cc4ccc(-c5ccccc5)cc4)NC(=O)[C@H](CC4CCCCC4)NC(=O)CSC[C@@H](C(=O)NCC(N)=O)NC(=O)[C@H](CC(C)C)NC(=O)[C@H](Cc4ccc(O)cc4)NC(=O)[C@H](C(C)C)NC(=O)[C@@H]4CCCN4C(=O)[C@H]([C@H](C)N)NC(=O)[C@@H](CCCNC(=N)N)NC(=O)[C@H](CC(=O)O)NC(=O)[C@@H]4CCCN4C(=O)CN(C)C3=O)cc2)cc1 [Example 239] ({CH2CO}-[Cha][Bip][Bip(4'-NHAc)][Sar]PD[dR][Abu(3S-NH2)]PVYLCG-NH2; thioether N-13)	
	CC(C)C[C@@H]1NC(=O)[C@H](Cc2ccc(O)cc2)NC(=O)[C@H](C(C)C)NC(=O)[C@@H]2CCCN2C(=O)[C@H](C(C)C)NC(=O)[C@@H](CCCNC(=N)NC[C@H](O)CO)NC(=O)[C@H](CC(=O)O)NC(=O)[C@@H]2CCCN2C(=O)CN(C)C(=O)[C@H](Cc2ccc(-c3ccc(NC(=O)c4nn(CC(=O)O)c5ccccc45)cc3)cc2)NC(=O)[C@H](Cc2ccc(-c3ccc(C(=O)O)cc3)cc2)NC(=O)[C@H](CC2CCCCC2)NC(=O)CSC[C@@H](C(=O)NCC(N)=O)NC1=O [Example 545] ({CH2CO}-[Cha][Bip(4'-COOH)][Bip(4'-NH)](Indazole3carbonyl(1-CH2COOH))[Sar]PD[dArg(ω-(2S)-2,3-diOHpropyl)]VPVYLCG-NH2; thioether N-13)	50 to 200 nM
< 50 nM	CC(C)C[C@@H]1NC(=O)[C@H](CCCNC(=N)N)NC(=O)[C@H](C(C)C)NC(=O)[C@@H]2CCCN2C(=O)[C@H](C(C)C)NC(=O)[C@@H](CCCNC(=N)NCc2cccc(O)c2)NC(=O)[C@H](CC(=O)O)NC(=O)[C@@H]2CCCN2C(=O)CN(C)C(=O)[C@H](Cc2ccc(-c3ccc(NC(=O)c4cccc(OCC(=O)O)c4)cc3)cc2)NC(=O)[C@H](Cc2ccc(-c3ccccc3)cc2)NC(=O)[C@H](CN2CCOCC2)NC(=O)CSC[C@@H](C(=O)NCC(N)=O)NC1=O [Example 568] ({CH2CO}-[Ala(morpholin-4-yl)][Bip][Bip(4'-NH)](Benzoyl(3-OCH2COOH))[Sar]PD[dArg(ω-(3-HO-benzyl))]VPVRLCG-NH2; thioether N-13)	
< 50 nM	CC(C)C[C@@H]1NC(=O)[C@H](CCCNC(=N)N)NC(=O)[C@H](C(C)C)NC(=O)[C@@H]2CCCN2C(=O)[C@H](C(C)C)NC(=O)[C@@H](CCCNC(=N)NCc2cccc(CNC(=N)N)c2)NC(=O)[C@H](CC(=O)O)NC(=O)[C@@H]2CCCN2C(=O)CN(C)C(=O)[C@H](Cc2ccc(-c3ccc(NC(=O)c4cccc(OCC(=O)O)c4)cc3)cc2)NC(=O)[C@H](Cc2ccc(-c3ccccc3)cc2)NC(=O)[C@H](CN2CCOCC2)NC(=O)CSC[C@@H](C(=O)NCC(N)=O)NC1=O [Example 572] ({CH2CO}-[Ala(morpholin-4-yl)][Bip][Bip(4'-NH)](Benzoyl(3-OCH2COOH))[Sar]PD[dArg(Nω-CH2C6H4-3-CH2Gua)]VPVRLCG-NH2; thioether N-13)	
< 50 nM	CC(C)C[C@@H]1NC(=O)[C@H](Cc2ccc(O)cc2)NC(=O)[C@H](C(C)C)NC(=O)[C@@H]2COCCN2C(=O)[C@H](C(C)C)NC(=O)[C@@H](CCCNC(=N)N)NC(=O)[C@H](CC(=O)O)NC(=O)[C@H](Cc2ccc(O)cc2)NC(=O)CN(C)C(=O)[C@H](Cc2ccc(-c3ccccc3)cc2)NC(=O)[C@H](Cc2ccc(-c3ccccc3)cc2)NC(=O)[C@H](CN2CCOCC2)NC(=O)CSC[C@@H](C(=O)NCC(N)=O)NC1=O [Example 143] ({CH2CO}-[Ala(morpholin-4-yl)][Bip][Bip][Sar]YD[dR]V[Morpholine(3S-CO)]VYLCG-NH2; thioether N-13)	
< 50 nM	CC[C@H](C)[C@@H]1NC(=O)[C@@H]2CCCN2C(=O)[C@H]([C@@H](C)CC)NC(=O)[C@@H](CCCNC(=N)N)NC(=O)[C@H](CC(=O)O)NC(=O)[C@H](Cc2ccccc2)NC(=O)CN(C)C(=O)[C@H](Cc2ccc(-c3ccc(NC(=O)c4cccc(OCC(=O)O)c4)cc3)cc2)NC(=O)[C@H](Cc2ccc(-c3ccc(C(=O)O)cc3)cc2)NC(=O)[C@H](C(C)(C)C)NC(=O)CSC[C@@H](C(=O)NCC(N)=O)NC(=O)[C@H](CC(C)C)NC(=O)[C@H](Cc2cnc[nH]2)NC1=O [Example 352] ({CH2CO}-[Tle][Bip(4'-COOH)][Bip(4'-NH)](Benzoyl(3-OCH2COOH))[Sar]FD[dR]IPIHLCG-NH2; thioether N-13)	
< 50 nM	CC(C)C[C@@H]1NC(=O)[C@H](Cc2cccc(C(N)=O)c2)NC(=O)[C@H](C(C)C)NC(=O)[C@@H]2CCCN2C(=O)[C@H](C(C)C)NC(=O)[C@@H](CCCNC(=N)NCc2ccccc2)NC(=O)[C@H](CC(=O)O)NC(=O)[C@H](Cc2ccc(O)cc2)NC(=O)CN(C)C(=O)[C@H](Cc2ccc(-c3ccc(NC(=O)c4cccc(CC(=O)O)c4)cc3)cc2)NC(=O)[C@H](Cc2ccc(-c3ccccc3)cc2)NC(=O)[C@H](CN2CCOCC2)NC(=O)CSC[C@@H](C(=O)NCC(N)=O)NC1=O [Example 603] ({CH2CO}-[Ala(morpholin-4-yl)][Bip][Bip(4'-NHCO-C6H4-3-CH2COOH)][Sar]YD[dArg(ω-Bn)]VPV[Phe(3-CONH2)]LCG-NH2; thioether N-13)	
50 to 200 nM	CC(C)C[C@@H]1NC(=O)[C@H](Cc2ccc(C(N)=O)cc2)NC(=O)[C@H](C(C)C)NC(=O)[C@@H]2CCCN2C(=O)[C@H](C(C)C)NC(=O)[C@@H](CCCNC(=N)N)NC(=O)[C@H](CC(=O)O)NC(=O)[C@H](Cc2ccc(O)cc2)NC(=O)CN(C)C(=O)[C@H](Cc2ccc(-c3ccccc3)cc2)NC(=O)[C@H](Cc2ccc(-c3ccccc3)cc2)NC(=O)[C@H](CN2CCOCC2)NC(=O)CSC[C@@H](C(=O)NCC(N)=O)NC1=O [Example 151] ({CH2CO}-[Ala(morpholin-4-yl)][Bip][Bip][Sar]YD[dR]VPV[Phe(4-CONH2)]LCG-NH2; thioether N-13)	
	CC[C@H](C)[C@@H]1NC(=O)[C@@H](CCCNC(=N)N)NC(=O)[C@H](CC(=O)O)NC(=O)[C@H](Cc2cnc[nH]2)NC(=O)CN(C)C(=O)[C@H](Cc2ccc(-c3ccc(NC(=O)c4cccc(CC(=O)OC)c4)cc3)cc2)NC(=O)[C@H](Cc2ccc(-c3ccc(C(=O)O)cc3)cc2)NC(=O)[C@H](CC2CCCCC2)NC(=O)CSC[C@@H](C(=O)NCC(N)=O)NC(=O)[C@H](CC(C)C)NC(=O)[C@H](Cc2c[nH]cn2)NC(=O)[C@H](C(C)C)NC(=O)[C@@H]2CCCN2C1=O [Example 503] ({CH2CO}-[Cha][Bip(4'-COOH)][Bip(4'-NH)](X62)[Sar]HD[dR]IPVHLCG-NH2; thioether N-13)	< 50 nM
200 to 2000 nM	CC(=O)Nc1ccc(-c2ccc(C[C@@H]3NC(=O)[C@H](Cc4ccc(-c5ccccc5)cc4)NC(=O)[C@H](Cc4ccccc4)NC(=O)CSC[C@@H](C(=O)NCC(N)=O)NC(=O)[C@H](CC(C)C)NC(=O)[C@H](CCCNC(=N)N)NC(=O)[C@H](C(C)C)NC(=O)[C@@H]4CCCN4C(=O)[C@H](C(C)C)NC(=O)[C@H](CCCNC(=N)N)NC(=O)[C@H](CC(=O)O)NC(=O)[C@@H]4CCCN4C(=O)CN(C)C3=O)cc2)cc1 [Example 37] ({CH2CO}-F[Bip][Bip(4'-NHAc)][Sar]PDRVPVRLCG-NH2; thioether N-13)	
